Reference: patent US20120244549A1, “Detection Method for Methyltransferase Enzymatic Activity” (BELLBROOK LABS, LLC, priority 2011, published 2012)

Biological target: T1, G9a methyltransferase (Homo sapiens, UniProt Q96KQ7)
T1 sequence (Q96KQ7 1-1210): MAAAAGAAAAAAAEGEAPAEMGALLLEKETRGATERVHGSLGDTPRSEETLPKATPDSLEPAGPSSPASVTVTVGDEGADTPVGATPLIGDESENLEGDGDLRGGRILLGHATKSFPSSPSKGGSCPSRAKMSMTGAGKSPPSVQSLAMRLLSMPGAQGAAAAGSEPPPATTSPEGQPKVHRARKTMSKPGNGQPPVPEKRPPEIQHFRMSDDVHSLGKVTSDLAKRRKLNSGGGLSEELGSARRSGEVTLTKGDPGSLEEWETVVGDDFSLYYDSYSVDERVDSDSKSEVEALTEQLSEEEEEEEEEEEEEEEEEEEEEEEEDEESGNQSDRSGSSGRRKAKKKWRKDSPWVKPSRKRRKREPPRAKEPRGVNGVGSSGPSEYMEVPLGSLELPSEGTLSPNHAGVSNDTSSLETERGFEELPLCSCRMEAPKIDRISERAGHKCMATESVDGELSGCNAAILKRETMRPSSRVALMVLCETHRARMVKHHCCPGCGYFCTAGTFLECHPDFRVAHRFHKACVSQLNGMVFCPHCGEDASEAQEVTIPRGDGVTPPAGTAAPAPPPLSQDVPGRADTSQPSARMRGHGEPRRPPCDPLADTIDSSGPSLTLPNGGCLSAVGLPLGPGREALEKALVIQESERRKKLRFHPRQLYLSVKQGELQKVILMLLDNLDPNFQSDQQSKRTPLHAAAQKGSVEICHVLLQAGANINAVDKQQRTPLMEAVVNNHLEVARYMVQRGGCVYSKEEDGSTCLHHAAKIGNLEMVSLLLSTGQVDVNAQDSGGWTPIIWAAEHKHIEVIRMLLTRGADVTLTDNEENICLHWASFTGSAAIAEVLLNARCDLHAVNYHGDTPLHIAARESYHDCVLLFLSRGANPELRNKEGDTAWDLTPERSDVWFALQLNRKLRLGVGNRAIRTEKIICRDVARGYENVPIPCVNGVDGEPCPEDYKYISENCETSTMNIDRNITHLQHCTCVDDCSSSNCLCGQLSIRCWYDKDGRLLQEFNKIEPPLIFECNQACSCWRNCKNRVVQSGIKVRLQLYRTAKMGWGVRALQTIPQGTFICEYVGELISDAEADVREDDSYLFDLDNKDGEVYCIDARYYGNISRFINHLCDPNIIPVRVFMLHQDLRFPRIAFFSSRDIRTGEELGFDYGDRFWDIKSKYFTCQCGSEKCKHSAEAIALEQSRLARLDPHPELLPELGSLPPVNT
Assay: G9a histone methyltransferase inhibitor dose response, coupled-enzyme AMP fluorescent immunodetection assay (FIG. 6)
Type: biochemical
Description: In addition, inhibitor potencies were determined with G9a HMT.
HMT reactions were run for 60 minutes followed by addition of quench and detection reagents including the SAM-SAH coupling enzyme mixture and the Transcreener® AMP2/GMP2 Assay monoclonal antibody and tracer.

CN1C(=O)[C@@]23C[C@]4([C@]56C[C@@]78SS[C@@](CO)(C(=O)N7[C@H]5Nc5ccccc56)N(C)C8=O)c5ccccc5N[C@@H]4N2C(=O)[C@]1(CO)SS3 [chaetocin]
IC50: 770 µM
